Test results: patent publication US12128029B2, “Treatment of idiopathic pulmonary fibrosis” (VICORE PHARMA AB, priority 2022, dated 2024)

How the values were obtained:
[1] = Sensitivity of C21 and salts to light and water; type: physicochemical; conditions: C21 and salts thereof
subjects with IPF = test: Phase II, multi-centre, open-label, single-arm trial of the safety, efficacy and pharmacokinetics of C21 in subjects with IPF; conditions: for mean change in FVC from baseline: C21 100 mg b.i.d. orally (sodium salt capsules), observed data, FIG. 1
Experimental: The primary objective of the study is/was to investigate the safety of C21, 200 mg daily dose (100 mg b.i.d.) administered orally to subjects with IPF. The secondary objectives are/were to evaluate the effect on lung function decline of C21 and the pharmacokinetics of C21 at the same daily dose. Exploratory objectives include the investigation of a range of laboratory parameters as potential biomarkers of inflammation and fibrosis.
The primary endpoint of the trial is the nature and frequency of adverse events occurring over the trial period.
Secondary endpoints included changes from baseline in: • FVC (defined as the maximum amount of air that can be forcibly exhaled from the lungs after fully inhaling) at Weeks 12, 24 and 36; • plasma concentration of C21 and derived PK parameters evaluated in a sub-set of subjects.
C21 has been administered twice daily to the subjects for 36 weeks as follows: • morning dose: two 50 mg capsules (100 mg C21 or placebo) to be taken with a glass of water after minimum 2 hours fasting; and • afternoon/evening dose: two 50 mg capsules (100 mg C21 or placebo) to be taken with a glass of water after minimum 2 hours fasting. Subjects are required not to eat anything for 1 hour after taking the study drug.
The patients were enrolled to receive C21 (100 mg b.i.d.) for 36 weeks in total.

[2] = test system: model of obstructive lung disease (specifically COPD); conditions: cited from earlier work
patients with IPF = conditions: over the period of a year; cited from earlier work
[3] = interim analysis, 21 subjects, C21 100 mg b.i.d.

| SMILES | sensitivity to the combined presence of light and water [1] | mean change in FVC from baseline (subjects with IPF; 24 weeks) | difference in mean FVC change versus expected mean decline in untreated patients (subjects with IPF; 24 weeks, expected decline -120 mL, based on previously published IPF trials) | mean change in FVC from baseline (subjects with IPF; 36 weeks) | difference in mean FVC change versus expected mean decline in untreated patients (subjects with IPF; 36 weeks, expected decline -180 mL) | gastrointestinal signals (subjects with IPF; [3]) | overall safety profile (subjects with IPF; [3]) | related serious adverse events (subjects with IPF; [3]) | deaths in the ongoing trial (subjects with IPF; reported to be due to COVID-19 and not related to C21) | p value of slope (change in FVC scaled to 24 weeks, by visit, observed cases) versus expected mean in untreated patients (subjects with IPF; week 28) | p value of slope (change in FVC scaled to 24 weeks, by visit, observed cases) versus expected mean in untreated patients (subjects with IPF; week 32) | p value of slope (change in FVC scaled to 24 weeks, by visit, observed cases) versus expected mean in untreated patients (subjects with IPF; week 36) | effect on cigarette smoke-induced emphysema [2] | effect on lung functions [2] | reduction in the rate of decline in lung function (FVC measurements) (patients with IPF) |
| --- | --- | --- | --- | --- | --- | --- | --- | --- | --- | --- | --- | --- | --- | --- | --- |
| CCCCOC(=O)NS(=O)(=O)c1sc(CC(C)C)cc1-c1ccc(Cn2ccnc2)cc1 [C21, N-butyloxycarbonyl-3-(4-imidazol-1-ylmethylphenyl)-5-iso-butylthiophene-2-sulfonamide] | extreme sensitivity | +250 mL | +371 mL | +750 mL | +930 mL | no gastrointestinal signals | no safety profile concerns | no related serious adverse events | 1 | 0.012 | 0.032 | 0.016 | prevented cigarette smoke-induced emphysema | improved lung functions | – |
| COC(=O)c1ccc2c(c1)NC(=O)/C2=C(\Nc1ccc(N(C)C(=O)CN2CCN(C)CC2)cc1)c1ccccc1 [nintedanib] | – | – | – | – | – | – | – | – | – | – | – | – | – | – | approximately 50% |
| Cc1ccc(=O)n(-c2ccccc2)c1 [pirfenidone] | – | – | – | – | – | – | – | – | – | – | – | – | – | – | approximately 50% |
